Experimental data from patent US7332505B2, “Nitrosated and nitrosylated proton pump inhibitors, compositions and methods of use” (Nitromed, Inc., priority 1999, dated 2008).
“Also recorded” adds a separate entry of the source.

System: ethanol/HCl mixture-induced gastric lesions
Experiment: ethanol/HCl mixture-induced gastric lesion test in rats
Assay type: in vivo, Male Sprague Dawley rats
Details: for inhibition of the formation of gastric lesions (gastric lesion score) relative to vehicle alone: 200 μmol/kg by oral gavage 30 min before 60% ethanol in 150 mM HCl intragastrically, lesions scored 60 min later, vehicle 0.5% Methocel, FIG. 1
Method: The ethanol/HCl mixture-induced gastric lesion test in rats described by Takeuchi et al, J. Pharmacol. Exp. Ther., 286: 115-121 (1998), was used to evaluate gastric lesion activity. Male Sprague Dawley rats (Charles River Laboratories, Wilmington, Ma.) weighing 230-250 g were used for the experiments. The rats were housed with laboratory chow and water ad libitum prior to the study. The rats were fasted for 24 hours with free access to water and then dosed by oral gavage with vehicle or with the test compounds given at a volume of 0.5 ml/100 g body weight. Thirty minutes after oral dosing all the rats received 1 ml of a solution of 60% ethanol in 150 mM HCl intragastrically. Food was withheld after dosing. Sixty minutes after ethanol/HCl, rats were euthanized by pre-charged CO2. The stomachs were dissected along the greater curvature, washed with a directed stream of 0.9% saline and pinned open on a sylgard based petri dish for examination of the hemorrhagic lesions. Gastric lesion score was expressed in mm and calculated by summing the length of each lesion as described by Al-Ghamdi et al, J. Int. Med. Res., 19:2242 (1991). Results are expressed as the mean ± standard error of the mean. Statistical analysis were conducted using ANOVA test followed by a Student-Newman-Keuls post-hoc test using the Abacus Concepts, Super Anova computer program (Abacus Concepts, Inc., Berkeley, Calif.).

| Compound | inhibition of the formation of gastric lesions (gastric lesion score) relative to vehicle alone | inhibition of the formation of gastric lesions (gastric lesion score) relative to lanzoprazole (200 μmol/kg by oral gavage 30 min before ethanol/HCl, p<0.05, FIG. 1) |
| --- | --- | --- |
| Cc1c(OCC(F)(F)F)ccnc1C[S+]([O-])c1nc2ccccc2[nH]1 (stereo not drawn) [Lanzoprazole, 2-(((3-methyl-4-(2,2,2-trifluoro-ethoxy)-2-pyridinyl)methyl)sulfinyl)-1H-benzimidazole, reference compound] | did not significantly inhibit the formation of gastric lesions; also recorded: failed to significantly inhibit the formation of gastric lesions |  |
| Cc1c(CC(F)(F)F)ccnc1C[S+]([O-])c1nc2ccccc2n1COC(=O)CCC(=O)N(Cc1ccccc1)CC(C)(C)SN=O (stereo not drawn) [Example 2, {2-({[3-Methyl-4-(2,2,2-trifluoroethyl)-2-pyridyl]methyl}sulfinyl)benzimidazolyl]-methyl-3-{N-[2-methyl-2-(nitrosothio)-propyl]-N-benzylcarbamoyl}propanoate] | significantly inhibited the formation of gastric lesions | inhibited the formation of gastric lesions |
